Measurements taken from patent US20190298846A1, “CELL TARGETING CONJUGATES” (LinXis B.V., priority 2016, published 2019).
Square brackets hold non-standard residues; d marks the D form. Peptide text beside a SMILES is read from it. * marks the point of attachment. Dolaproine = CO[C@@H]([C@@H]1CCCN1)[C@@H](C)C(=O)O; Dil = CC[C@H](C)[C@H](NC)[C@@H](CC(=O)O)OC; X1 = O=C(CCCCCN1C(=O)C=CC1=O)NCCOCCOCCN*; NMe2Val = CC(C)[C@@H](C(=O)*)N(C)C

Tests used:
all tested cell lines = assay: In vitro cell viability assay, drug-linkers versus ADCs; format: cell-based; settings: AF-Lx quenched with thiourea, AF-Mal with n-acetyl-cysteine
Method: (§1) Before starting the assay, the AF-Lx and AF-Mal were quenched by incubation the compounds with 1 mol equiv. thiourea (2 hours, 37° C.) and n-acetyl-cysteine (30 minutes, 0° C.), respectively. The cells were trypsinized and plated in 96-well, flat-bottomed, tissue culture plates at day 0. On day 1, from the above mentioned compounds serial dilution series (9×4-fold dilutions) were made starting from 10 or 1000 nM (depending on type of cells and compounds) and added to the cells (in case of ADCs, concentration of the mAb was used). On day 5, the […] BLUE® reagent was added and incubated for 2 hours at 37° C., and viable cells were measured with a TeCan plate reader (Tecan Group Ltd.) at 560EX/590EM nm. Fluorescence values of the samples were corrected for background of cell culture medium, the results, presented as the percentage of survival, were calculated by dividing the fluorescence values of the treated cells by the values of the untreated control cells. The data were analyzed with Graphpad Prism 5 software.

NCI-N87 tumors = assay: In vivo therapy study, NCI-N87 xenografts; set-up: species or system nude mice; settings: single bolus injection 15 mg/kg
Method: (§2) Body weight was measured three times per week and MTD was reached when weight loss was >10% compared with the control mice. […] For this purpose, seven groups of 8 or 9 mice with established NCI-N87 or JIMT-1 xenografts in both flanks were used. […] All mice received an i.p. bolus injection. In the study with the NCI-N87 tumors, Group 1 was the control group and received 100 μL of saline solution. […] In the study with the JIMT-1 tumors, Group 1 was the control group and received 100 μL of saline solution. […] Body weight and tumor volume were measured three times per week up to 4 months after end of treatment.

JIMT-1 tumors = assay: In vivo therapy study, JIMT-1 xenografts; set-up: species or system nude mice; settings: single bolus injection (15 mg/kg; AF conjugates 15 and 30 mg/kg), follow-up to day 125
Method: as §2

SKOV-3 = assay: In vitro cell viability assay ([…] BLUE); format: cell-based
Method: as §1, with “BLUE® Assay (Promega). Before” for “Before”, “Fluorescence values of the samples were corrected for background of cell culture medium, the results, presented as the percentage of survival, were calculated by dividing the fluorescence values of the treated cells by the values of the untreated control cells.” left out

MDA-MB-231 = assay: In vitro cell viability assay ([…] BLUE); format: cell-based
Method: as §1, with “BLUE® Assay (Promega). Before” for “Before”, “Fluorescence values of the samples were corrected for background of cell culture medium, the results, presented as the percentage of survival, were calculated by dividing the fluorescence values of the treated cells by the values of the untreated control cells.” left out

SK-BR-3 = assay: In vitro cell viability assay ([…] BLUE); format: cell-based
Method: as §1, with “BLUE® Assay (Promega). Before” for “Before”, “Fluorescence values of the samples were corrected for background of cell culture medium, the results, presented as the percentage of survival, were calculated by dividing the fluorescence values of the treated cells by the values of the untreated control cells.” left out

JIMT-1 = assay: In vitro cell viability assay ([…] BLUE); format: cell-based
Method: as §1, with “BLUE® Assay (Promega). Before” for “Before”, “Fluorescence values of the samples were corrected for background of cell culture medium, the results, presented as the percentage of survival, were calculated by dividing the fluorescence values of the treated cells by the values of the untreated control cells.” left out

NCI-N87 = assay: In vitro cell viability assay ([…] BLUE); format: cell-based; settings: concentration of the mAb for ADCs, day 5 readout
Method: as §1, with “BLUE® Assay (Promega). Before” for “Before”, “Fluorescence values of the samples were corrected for background of cell culture medium, the results, presented as the percentage of survival, were calculated by dividing the fluorescence values of the treated cells by the values of the untreated control cells.” left out

Row | Compound | potency of drug-linker lower compared to its corresponding ADC (all tested cell lines) | time at which tumors started regrowth (NCI-N87 tumors) [days] | tumor growth response, in words (JIMT-1 tumors) | IC50 (SKOV-3) [nM] | potency / IC50 in MDA-MB-231, in words (MDA-MB-231; HER2-negative MDA-MB-231) | IC50 (MDA-MB-231; MDA-MB-231, HER2-negative) [nM] | IC50 (SK-BR-3) [nM] | IC50 (JIMT-1; JIMT-1, T-DM1-resistant) [nM] | potency / IC50 in JIMT-1 cell line, in words (JIMT-1; T-DM1-resistant JIMT-1) | IC50 (NCI-N87) [nM]
1 | CC[C@H](C)[C@@H]([C@@H](CC(=O)N1CCC[C@H]1[C@H](OC)[C@@H](C)C(=O)N[C@H](Cc1ccccc1)C(=O)NCCOCCOCCNC(=O)CCCCCN1C(=O)C=CC1=O)OC)N(C)C(=O)[C@@H](NC(=O)[C@H](C(C)C)N(C)C)C(C)C [AF-Mal, AF-PEG1-amide-Hex-Mal] (NMe2Val-V[Dil][Dolaproine][dF]-X1) | 10 fold | – | – | – | – | – | – | – | – | –
2 | [Pt(en)(AF-(4-(12-amino-3-oxo-7,10-dioxa-2,4-diazadodecyl)piperidine))Cl](Cl) [AF-Lx] | 10^3-10^4 fold | – | – | – | – | – | – | – | – | –
3 | ado-trastuzumab emtansine [T-DM1] | – | 20 | minimal growth delay | 0.013 | lower IC50 | 200 | 0.021 | 7 | an order of magnitude higher | 0.105
